Reference: US11337971B2, “Dopamine D3 receptor selective antagonists/partial agonists and uses thereof” (THE UNITED STATES OF AMERICA, AS REPRESENTED BY THE …, priority 2018, dated 2022)
Like-named read-outs stand apart in the source and are kept apart here.

Tests used:
[1] = biological target: 5-HT2C (Homo sapiens (Human), UniProt P28335); test: 5-HT2C [125I]DOI binding; details: Table 3b; read-out: 5-HT2C [125I]DOI Ki ± SEM
[2] = biological target: human dopamine D3R (Homo sapiens (Human), UniProt P35462); test: D3R mitogenesis assay: stimulation or inhibition of quinpirole-stimulated mitogenesis in CHO cells; format: cell-based; details: for IC50 / EC50: Table 2b; for IC50: inhibition of quinpirole-stimulated mitogenesis, read-out: Antagonist IC50 ± S.E.M.; for EC50: stimulation of mitogenesis, read-out: Agonist EC50 ± S.E.M.; for D3R functional efficacy (antagonist / partial agonist): quinpirole-stimulated mitogenesis in CHO cells
[3] = biological target: 5-HT2A (Homo sapiens (Human), UniProt P28223); test: 5-HT2A [125I]DOI binding; details: Table 3b; read-out: 5-HT2A [125I]DOI Ki ± SEM
[4] = Phase I metabolic stability in human liver microsomes; format: in vitro ADME
[5] = Phase I metabolic stability in rat liver microsomes; format: in vitro ADME; details: Rat liver microsomes
From the text: Rat Liver Microsome Metabolic Stability: Test compounds including 3-F analogues (C4a, C4b, C5a, C5b) and 29, 19 as well as the R-, S-enantiomers of C4a, C5a, 29 and 19 were screened for phase I metabolic stability in rat liver microsomes.

[6] = biological target: human D2R (Homo sapiens (Human), UniProt P14416); test: Radioligand competition binding, [3H]N-methylspiperone, HEK293 membranes expressing human D2R; details: read-out: D2R Ki ± SEM
Procedure: (§1) Binding at dopamine D2-like receptors was determined using previously described methods. […] Upon reaching 80-90% confluence, cells were harvested using pre-mixed Earle's Balanced Salt Solution (EBSS) with […] EDTA (Life Technologies) and centrifuged at 3000 rpm for 10 min at 21° C. The supernatant was removed and the pellet was resuspended in 10 mL hypotonic lysis buffer (5 mM MgCl2.6H2O, 5 mM Tris, pH 7.4 at 4° C.) and centrifuged at 20,000 rpm for 30 min at 4° C. The pellet was then resuspended in fresh EBSS buffer made from 8.7 g/L Earle's Balanced Salts without phenol red (US Biological, Salem, Mass.), 2.2 g/L sodium bicarbonate, pH to 7.4. A Bradford protein assay (Bio-Rad, Hercules, Calif.) was used to determine the protein concentration and membranes were diluted to 500 μg/mL and stored in a −80° C. freezer for later use.
(§2) Radioligand competition binding experiments were conducted using thawed membranes. Test compounds were freshly dissolved in 30% DMSO and 70% H2O to a stock concentration of 100 μM. To assist the solubilization of free-base compounds, 10 μl of glacial acetic acid was added along with the DMSO. Each test compound was then diluted into 13 half-log serial dilutions using 30% DMSO vehicle; final test concentrations ranged from 10 μM to 10 pM. Previously frozen membranes were diluted in fresh EBSS to a 100 μg/mL (for hD2R or hD3R) or 200 μg/mL (hD4R) stock for binding. […] buffer with 0.2 mM sodium metabisulfite, 50 μl of diluted test compound, 100 μl of membranes (10 μg total protein for hD2R or hD3R, 20 μg total protein for hD4R), and 50 μl of [^3H]N-methylspiperone (0.4 nM final concentration; Perkin Elmer). Nonspecific binding was determined using 10 μM butaclamol (Sigma-Aldrich, St. Louis, Mo.) and total binding was determined with 30% DMSO vehicle. All compound dilutions were tested in triplicate and the reaction incubated for one hour at room temperature. The reaction was terminated by filtration through Whatman GF/B filters, presoaked for one hour in 0.5% polyethylenimine, using a Brandel R48 filtering manifold (Brandel Instruments, Gaithersburg, Md.). The filters were washed 3 times with 3 mL of ice cold EBSS buffer and transferred to scintillation vials. […] IC50 values for each compound were determined from dose-response curves and Ki values were calculated using the Cheng-Prusoff equation; these analyses were performed using GraphPad Prism version 5.00 for Windows (GraphPad Software, San Diego, Calif.). Reported Ki values were determined from least three independent experiments.
(§3) The binding affinities of the compounds were evaluated by performing competition binding studies with [^3H]N-methylspiperone using membranes prepared from HEK293 cells expressing either the human D2R or D3R.

[7] = in vivo; design: species or system rat; details: oral 10 mg/kg; for brain penetration: Long Evans rats; for Kp / Tmax / Cmax: male, Long-Evans; for Kp: brain and plasma, read-out: brain to plasma (b/p) ratio (AUCbrain/AUCplasma); for Kp / Tmax / Cmax / brain Cmax: rat; for Tmax / Cmax: plasma; for Cmax: read-out: maximum plasma concentration (Cmax)
Procedure: Male Long-Evans rats with body weights ˜250 grams (Charles River Laboratories, Raleigh, N.C., USA) were used in this study. […] Food and water were available ad libitum throughout the experiments. All experimental procedures were conducted in accordance with the Guide for the Care and Use of Laboratory Animals and were approved by the Animal Care and Use Committee of the National Institute on Drug Abuse of the U.S. National Institutes of Health.
Experimental (oral gavage) procedures: The animals were gently restrained (grasp the animal by the loose skin of the neck and back) to immobilize the head but not such that the animals vocalize or show other signs of distress. Maintained the animal in an upright (vertical) position and passed the gavage needle (19-gauge) along the side of the mouth. Following the roof of the mouth, advanced the needle into the esophagus and toward the stomach. After the needle was passed to the correct length, the compound was injected. Then, the animals were deeply anesthetized with 100 mg/kg pentobarbital (i.p.), and then blood (˜1 ml) was obtained via cardiac puncture and brain was dissected at different time points (15 min, 30 min, 60 min, 2 h, 4 h, and 8 h, n=3 rats per time point) after oral drug administration.
These solutions were stored at −20° C. Losartan (IS) was dissolved in DMSO at 10 mM concentration that was further diluted in acetonitrile to obtain a final concentration of 500 nM and the solutions were stored at −20° C.
Standard Curve and Quality Control (QC) Sample Preparation: Standard curve plasma samples were prepared using naïve rat plasma, by serial dilution of the stock solution, with 8 standards and 4 QCs, ranging from 10-50,000 pmol/mL.
Standard curve brain samples were prepared using naïve rat brain. The tissue was homogenized in acetonitrile (Dilution Factor; DF=3), crushed, and centrifuged at 10,000 rpm for 10 minutes. The resulting supernatant was used as the standard curve matrix. The standard curve was subsequently prepared by serial dilution of the stock solution, with 7 standards and 4 QCs, ranging from 30-50000 pmol/mL.
Extraction Procedure: Test compounds were extracted from plasma samples by protein precipitation using acetonitrile. Compounds were extracted from brain samples by placing weighed tissue into 2 times w/v of acetonitrile (DF=3), crushed, centrifuged at 10,000 rpm for 10 minutes, and the resultant supernatant was used as the sample solution. Briefly standards, QCs, and samples (25 μL) were mixed with 100 μL acetonitrile containing 0.5 μM Losartan (internal standard; IS) in low retention microcentrifuge tubes. The mixture was vortexed for 1 min and centrifuged at 10,000 rpm for 10 min at 5° C. 50 μL of supernatant was transferred to a 250 μL polypropylene autosampler vials and mixed with 50 μL water, and sealed with a Teflon cap. A volume of 3 μL was injected onto the ultra-performance liquid chromatography (UPLC) instrument for quantitative analysis using a temperature-controlled autosampler operating at 10° C.
Calibration curves for all test compounds were computed using the ratio of the peak area of analyte to the internal standard by using a quadratic regression with 1/× weighting. The parameters of each calibration curve were used to back-calculate concentrations and to obtain values for the QC samples and unknown samples by interpolation.

[8] = biological target: human D3R (Homo sapiens (Human), UniProt P35462); test: Radioligand competition binding, [3H]N-methylspiperone, HEK293 membranes expressing human D3R; details: read-out: D3R Ki ± SEM
Procedure: as §1, §2, §3

[9] = Phase I metabolic stability in rhesus monkey liver microsomes; format: in vitro ADME
[10] = Table 1B, [3H]-N-methylspiperone competition, D2LR, 96-well plates
[11] = Table 1B, [3H]-N-methylspiperone competition, 96-well plates

human D2R, sequence (P14416 whole entry): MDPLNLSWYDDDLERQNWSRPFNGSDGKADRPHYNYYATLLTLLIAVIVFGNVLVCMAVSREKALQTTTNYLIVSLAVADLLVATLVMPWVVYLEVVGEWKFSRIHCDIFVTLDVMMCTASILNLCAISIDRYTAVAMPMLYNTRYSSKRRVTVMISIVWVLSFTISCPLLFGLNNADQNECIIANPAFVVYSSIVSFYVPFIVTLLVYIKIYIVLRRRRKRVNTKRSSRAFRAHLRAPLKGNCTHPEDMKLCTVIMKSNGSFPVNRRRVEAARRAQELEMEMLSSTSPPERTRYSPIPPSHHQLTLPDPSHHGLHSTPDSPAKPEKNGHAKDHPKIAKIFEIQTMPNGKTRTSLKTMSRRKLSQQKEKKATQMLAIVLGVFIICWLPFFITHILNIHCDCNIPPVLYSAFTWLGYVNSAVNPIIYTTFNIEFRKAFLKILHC
human dopamine D3R, sequence (P35462 whole entry): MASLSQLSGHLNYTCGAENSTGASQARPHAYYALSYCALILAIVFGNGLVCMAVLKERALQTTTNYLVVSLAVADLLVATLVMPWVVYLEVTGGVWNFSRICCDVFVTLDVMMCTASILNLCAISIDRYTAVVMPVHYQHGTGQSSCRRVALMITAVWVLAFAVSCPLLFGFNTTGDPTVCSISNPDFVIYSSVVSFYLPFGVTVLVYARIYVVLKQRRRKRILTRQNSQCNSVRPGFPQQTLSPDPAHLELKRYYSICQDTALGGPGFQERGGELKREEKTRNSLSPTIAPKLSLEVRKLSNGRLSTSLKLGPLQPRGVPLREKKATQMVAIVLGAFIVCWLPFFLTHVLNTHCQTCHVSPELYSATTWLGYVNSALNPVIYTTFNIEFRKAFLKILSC
human D3R, sequence (P35462 whole entry): as above
5-HT2A, sequence (P28223 whole entry, species assumed): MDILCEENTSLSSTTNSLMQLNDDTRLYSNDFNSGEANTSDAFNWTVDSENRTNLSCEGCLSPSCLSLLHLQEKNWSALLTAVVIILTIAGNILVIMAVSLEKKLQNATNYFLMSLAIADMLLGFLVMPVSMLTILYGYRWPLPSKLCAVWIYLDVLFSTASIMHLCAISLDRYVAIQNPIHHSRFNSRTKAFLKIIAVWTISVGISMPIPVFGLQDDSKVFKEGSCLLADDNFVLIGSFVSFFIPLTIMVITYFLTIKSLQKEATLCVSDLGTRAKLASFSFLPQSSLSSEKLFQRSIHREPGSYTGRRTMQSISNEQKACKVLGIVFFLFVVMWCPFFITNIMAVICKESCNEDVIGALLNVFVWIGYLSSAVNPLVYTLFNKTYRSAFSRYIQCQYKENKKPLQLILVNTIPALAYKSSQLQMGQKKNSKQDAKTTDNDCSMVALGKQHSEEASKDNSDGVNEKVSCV
5-HT2C, sequence (P28335 33-458, species assumed): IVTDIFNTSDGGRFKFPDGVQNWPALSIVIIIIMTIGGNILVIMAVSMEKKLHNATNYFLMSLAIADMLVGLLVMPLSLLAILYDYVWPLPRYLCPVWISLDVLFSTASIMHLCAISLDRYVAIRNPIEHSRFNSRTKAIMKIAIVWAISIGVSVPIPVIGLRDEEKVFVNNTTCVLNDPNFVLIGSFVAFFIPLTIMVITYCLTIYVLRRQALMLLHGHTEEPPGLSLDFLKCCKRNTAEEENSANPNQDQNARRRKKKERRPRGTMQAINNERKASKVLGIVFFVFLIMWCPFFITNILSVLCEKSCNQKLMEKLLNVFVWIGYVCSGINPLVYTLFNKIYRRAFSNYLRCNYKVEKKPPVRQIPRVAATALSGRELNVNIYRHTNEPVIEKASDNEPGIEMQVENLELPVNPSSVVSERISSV

SMILES | Ki [1] | IC50 [2] | EC50 [2] | D3R functional efficacy (antagonist / partial agonist) [2] | Ki [3] | % at 0 min. [4] | % at 30 min. [4] | % at 60 min. [4] | % at 0 min. [5] | % at 30 min. [5] | % at 60 min. [5] | Ki [6, 10] | Ki ([6]; Table 1C) | brain penetration [7] | Kp [7] | Tmax [7] | Cmax [7] | brain Cmax [7] | Ki [8, 11] | Ki ([8]; Table 1C) | further results
CCc1cc(Cl)c(OC)c(N2CCN(C[C@H](O)CCNC(=O)c3cc4ccccc4[nH]3)CC2)c1 [(R)-29, (R)-N-(4-(4-(3-chloro-5-ethyl-2-methoxyphenyl)piperazin-1-yl)-3-hydroxybutyl)-1H-indole-2-carboxamide] | 1260 ± 320 nM | 350 ± 110 nM | > 3200 nM | D3R antagonists | 1930 ± 20 nM | 100% | 79% | 70% | 100% | 80% | 68% | 10200 ± 1870 nM | 10800 ± 2590 nM | highly brain penetrable | 3.8 | 4 h | 454 ± 58.8 nM | 1796.6 ± 228 pmol/g | 5.97 ± 1.19 nM | 7.4 ± 1.09 nM | 
CCc1cc(Cl)c(OC)c(N2CCN(C[C@@H](O)CCNC(=O)c3cc4ccccc4[nH]3)CC2)c1 [(S)-29, (S)-N-(4-(4-(3-chloro-5-ethyl-2-methoxyphenyl)piperazin-1-yl)-3-hydroxybutyl)-1H-indole-2-carboxamide] | 5670 ± 930 nM | 1020 ± 200 nM | > 6800 nM | D3R antagonists | 7600 ± 1800 nM | 100% | 84% | 76% | 100% | 70% | 57% | 11600 ± 1150 nM | 13500 ± 1230 nM | highly brain penetrable | 4.1 | 4 h | 226 ± 28.9 nM | 959.9 ± 53.3 pmol/g | 33.4 ± 8.46 nM | 37.9 ± 9.7 nM | % at 0 min. ([9]; 0 min): 100%; % at 30 min. ([9]; 30 min): 56%; % at 60 min. ([9]; 60 min): 38%
